Where a SMILES comes first, the peptide text is derived from it. The star is where a group is joined. Palmitoyl = CCCCCCCCCCCCCCCC(=O)*
Columns and labels:
[1] = target: T1, PAR1 (Mus musculus, UniProt P30558); assay: myocardial ischemia (30 min left coronary artery occlusion) / 2 h reperfusion in mice; type: in vivo; conditions: 10 mg/kg sc before ischemia
T1 construct: endogenous in cells; host or cells: male C57BL/6N mice, in vivo
T1 sequence (P30558 22-430): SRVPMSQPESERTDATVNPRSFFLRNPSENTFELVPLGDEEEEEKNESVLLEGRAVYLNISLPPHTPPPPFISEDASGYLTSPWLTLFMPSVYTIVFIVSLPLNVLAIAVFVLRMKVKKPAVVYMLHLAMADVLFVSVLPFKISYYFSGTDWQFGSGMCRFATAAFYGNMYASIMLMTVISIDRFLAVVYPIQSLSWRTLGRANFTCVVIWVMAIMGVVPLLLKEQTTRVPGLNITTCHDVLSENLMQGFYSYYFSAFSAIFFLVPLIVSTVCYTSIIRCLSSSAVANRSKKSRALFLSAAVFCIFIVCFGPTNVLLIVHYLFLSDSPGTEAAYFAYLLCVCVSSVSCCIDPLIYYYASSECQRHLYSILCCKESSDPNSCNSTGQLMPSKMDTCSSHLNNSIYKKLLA
Method: FIGS. 1A-E show protection against cardiac myocardial injury by PZ-128 in mice. […] Images were quantified using ImageJ and adjusted by weight of each cardiac slice. Data are shown as mean±SD and analyzed by two-tailed Student's t-test: **p<0.01, ***p<0.001.
A role of PAR1 in directly mediating cardiac ischemic myonecrosis—independent of established platelet-dependent effects (Strande et al., Basic Res. Cardiol. 102(4):350-358, 2007)—was also examined. […] Mice (n=7) were treated with vehicle or 10 mg/kg PZ-128 (subcutaneous; sc) just prior to ischemic injury. As shown in FIG. 1a-d, PZ-128-treated mice had 51-62% reductions in mean cardiac Infarct Area (p<0.01), Area At Risk (p<0.01), and Total Ischemic Area (p<0.0001) compared to vehicle-treated mice. […] Using echocardiography after 3 days of reperfusion, there was a significant increase in left ventricular mass (p<0.05) in vehicle compared to PZ-128 treated cohorts, with no difference in left ventricular mass between baseline and 3 days in the PZ-128 cohort (FIG. 2). […] Previous pharmacokinetic studies of subcutaneously administered PZ-128 in mice were the basis of this 10 mg/kg dose in mice (Cisowski et al., Am. J. Pathol. 179(1):513-523, 2011), selected to match the 0.3-0.5 mg/kg doses administered in humans.
Eight-week male C57BL/6N mice were vehicle (20% DMSO) or 10 mg/kg PZ-128 1 h before cardiac surgery (n=7 per group). The left coronary artery was occluded for 30 min with a ligature left in place during reperfusion. Blood flow was restored for 2 h, then the left coronary artery was reoccluded, and 5% Evans blue dye was injected via the aorta. Hearts were frozen and sectioned in OTC, before incubation in TTC for 10 min at 37° C. (a) Sections were digitally scanned and the area of white (b—Infarct area=1), red (c—Area at Risk=AAR), white+red (d—total Ischemic area), and blue (e—Reperfusion area=R) quantified using ImageJ and adjusted by weight of each cardiac slice. Data are shown as mean±SD and analyzed by two-tailed Student's t-test: **p<0.01, ***p<0.001.

[2] = target: T2, PAR1 (Homo sapiens, UniProt P25116); assay: NT-proBNP plasma levels in heart failure subset of TRIP-PCI; type: in vivo; conditions: 24 hours after single dose (0.3 or 0.5 mg/kg combined), HF patients n=5, P=0.02
T2 construct: delivered intravenously in 100 patients with coronary artery disease (CAD) and acute coronary syndrome (ACS) undergoing cardiac catheterization; endogenous in cells; host or cells: patients of the TRIP-PCI trial (platelets ex vivo; whole body in vivo)
T2 sequence (P25116 22-425): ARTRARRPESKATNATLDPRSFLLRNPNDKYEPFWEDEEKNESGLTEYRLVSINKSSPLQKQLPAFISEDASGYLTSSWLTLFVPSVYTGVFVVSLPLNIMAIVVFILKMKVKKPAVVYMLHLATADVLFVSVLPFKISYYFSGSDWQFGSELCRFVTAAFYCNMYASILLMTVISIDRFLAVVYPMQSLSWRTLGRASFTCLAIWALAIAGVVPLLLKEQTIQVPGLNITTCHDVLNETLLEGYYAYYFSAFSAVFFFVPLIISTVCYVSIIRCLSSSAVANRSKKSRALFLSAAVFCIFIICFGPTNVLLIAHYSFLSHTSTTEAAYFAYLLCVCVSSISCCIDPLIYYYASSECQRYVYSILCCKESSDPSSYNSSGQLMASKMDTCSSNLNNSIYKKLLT
Method: Data was analyzed by 2-sided paired T-tests. Normal levels of NT-proBNP ≤125 pg/mL.
The TRIP-PCI (Thrombin Receptor Inhibitory Pepducin in PCI) Phase 2 trial (Kuliopulos et al., Arterioscler. Thromb. Vasc. Biol. 40(12):2990-3003, 2020), which enrolled a subset of patients with HF, was conducted to assess the safety, target engagement, and efficacy of PZ-128 in patients undergoing cardiac catheterization with intent to perform percutaneous coronary intervention (PCI). As explained above, in this randomized, double-blind, placebo-controlled, phase 2 trial, 100 patients were randomly assigned (2:1) to receive PZ-128 (0.3 mg/kg or 0.5 mg/kg), or placebo in a two-hour infusion initiated just prior to the start of cardiac catheterization. […]
In the BNP multinational study of 1568 patients presenting with dyspnea to the emergency department, BNP and NT-proBNP were the single most accurate predictors of diagnosis and severity of ADHF, and are used as a well-validated surrogate clinical efficacy endpoint in human trials (Ibrahim et al., Circ. Res. 123(5):614-629, 2018; Ibrahim et al., Circ. Heart Fail. 9(9), 2016). NT-proBNP levels were measured at baseline and 24 hours after the PZ-128 or placebo infusion was initiated and the cardiac catheterization procedure completed in the subset of patients with heart failure. […]

CCCCCCCCCCCCCCCC(=O)N[C@@H](CCCCN)C(=O)N[C@@H](CCCCN)C(=O)N[C@@H](CO)C(=O)N[C@@H](CCCNC(=N)N)C(=O)N[C@@H](C)C(=O)N[C@@H](CC(C)C)C(=O)N[C@@H](Cc1ccccc1)C(N)=O [PZ-128, Palmitate-KKSRALF-NH2] (Palmitoyl-KKSRALF-NH2)
reduction in mean Total Ischemic Area vs vehicle ([1]; n=7, p<0.0001): 51-62%
increase in total area of cardiac muscle able to be reperfused vs vehicle ([1]; n=7, p<0.001): 50%
reduction in mean Area At Risk vs vehicle ([1]; n=7, p<0.01): 51-62%
reduction in mean cardiac Infarct Area vs vehicle ([1]; n=7, p<0.01): 51-62%
change in NT-proBNP levels [2]: significant mean drop

Reference: patent US20240424053A1, “METHODS AND COMPOSITIONS FOR PROVIDING MYOCARDIAL PROTECTION AND TREATING MYOCARDIAL STRESS AND FIBROSIS” (Tufts Medical Center, Inc., priority 2021, published 2024)
